Source: ChEMBL document CHEMBL6114993, “Thienopyrimidine: A promising scaffold in the development of kinase inhibitors with anticancer activities” (Bioorg Med Chem, 2025)

Legend:
[1] = target: Vascular endothelial growth factor receptor 2 (Homo sapiens) (UniProt P35968); assay: Inhibition of N-terminal GST-tagged human recombinant VEGFR2 extracted from Sf9 cells at 10 uM relative to control; type: cell-free
[2] = target: Epidermal growth factor receptor (Homo sapiens) (UniProt P00533); assay: Inhibition of human recombinant EGFR at 10 uM relative to control
Chain of Epidermal growth factor receptor (Homo sapiens) (P00533 whole entry): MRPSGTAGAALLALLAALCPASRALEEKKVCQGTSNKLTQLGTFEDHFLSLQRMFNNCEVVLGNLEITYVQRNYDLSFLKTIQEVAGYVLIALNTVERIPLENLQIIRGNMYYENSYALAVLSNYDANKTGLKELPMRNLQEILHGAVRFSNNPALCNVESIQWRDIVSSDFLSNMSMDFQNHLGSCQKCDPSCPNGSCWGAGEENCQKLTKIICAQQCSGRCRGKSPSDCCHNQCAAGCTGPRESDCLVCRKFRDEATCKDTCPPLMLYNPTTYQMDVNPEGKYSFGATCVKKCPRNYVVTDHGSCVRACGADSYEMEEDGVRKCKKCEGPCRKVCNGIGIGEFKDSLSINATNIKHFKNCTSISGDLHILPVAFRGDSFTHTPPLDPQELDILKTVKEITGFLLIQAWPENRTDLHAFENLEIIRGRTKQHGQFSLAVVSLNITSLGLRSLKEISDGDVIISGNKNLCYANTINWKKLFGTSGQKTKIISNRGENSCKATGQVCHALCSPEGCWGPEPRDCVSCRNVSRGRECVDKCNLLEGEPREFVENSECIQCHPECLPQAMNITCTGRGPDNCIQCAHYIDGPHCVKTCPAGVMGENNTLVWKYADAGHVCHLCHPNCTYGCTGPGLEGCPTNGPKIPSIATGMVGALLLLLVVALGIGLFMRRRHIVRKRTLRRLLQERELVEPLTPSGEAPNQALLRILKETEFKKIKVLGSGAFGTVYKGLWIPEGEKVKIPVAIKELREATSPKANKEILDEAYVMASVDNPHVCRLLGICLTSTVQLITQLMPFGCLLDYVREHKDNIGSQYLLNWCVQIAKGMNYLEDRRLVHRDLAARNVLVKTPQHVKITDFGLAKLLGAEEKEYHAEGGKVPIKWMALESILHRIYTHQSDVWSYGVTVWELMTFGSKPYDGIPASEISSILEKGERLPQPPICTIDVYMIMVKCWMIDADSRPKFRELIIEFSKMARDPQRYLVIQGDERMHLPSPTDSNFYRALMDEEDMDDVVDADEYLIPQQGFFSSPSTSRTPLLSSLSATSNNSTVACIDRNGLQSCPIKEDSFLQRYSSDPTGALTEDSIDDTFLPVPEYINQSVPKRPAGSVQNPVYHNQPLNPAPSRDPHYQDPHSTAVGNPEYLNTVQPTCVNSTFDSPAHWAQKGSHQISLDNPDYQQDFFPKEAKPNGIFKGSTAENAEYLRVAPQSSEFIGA

[3] = target: Receptor tyrosine-protein kinase erbB-2 (Homo sapiens) (UniProt P04626); assay: Inhibition of human recombinant HER-2 at 10 uM relative to control
Chain of Receptor tyrosine-protein kinase erbB-2 (Homo sapiens) (P04626 whole entry): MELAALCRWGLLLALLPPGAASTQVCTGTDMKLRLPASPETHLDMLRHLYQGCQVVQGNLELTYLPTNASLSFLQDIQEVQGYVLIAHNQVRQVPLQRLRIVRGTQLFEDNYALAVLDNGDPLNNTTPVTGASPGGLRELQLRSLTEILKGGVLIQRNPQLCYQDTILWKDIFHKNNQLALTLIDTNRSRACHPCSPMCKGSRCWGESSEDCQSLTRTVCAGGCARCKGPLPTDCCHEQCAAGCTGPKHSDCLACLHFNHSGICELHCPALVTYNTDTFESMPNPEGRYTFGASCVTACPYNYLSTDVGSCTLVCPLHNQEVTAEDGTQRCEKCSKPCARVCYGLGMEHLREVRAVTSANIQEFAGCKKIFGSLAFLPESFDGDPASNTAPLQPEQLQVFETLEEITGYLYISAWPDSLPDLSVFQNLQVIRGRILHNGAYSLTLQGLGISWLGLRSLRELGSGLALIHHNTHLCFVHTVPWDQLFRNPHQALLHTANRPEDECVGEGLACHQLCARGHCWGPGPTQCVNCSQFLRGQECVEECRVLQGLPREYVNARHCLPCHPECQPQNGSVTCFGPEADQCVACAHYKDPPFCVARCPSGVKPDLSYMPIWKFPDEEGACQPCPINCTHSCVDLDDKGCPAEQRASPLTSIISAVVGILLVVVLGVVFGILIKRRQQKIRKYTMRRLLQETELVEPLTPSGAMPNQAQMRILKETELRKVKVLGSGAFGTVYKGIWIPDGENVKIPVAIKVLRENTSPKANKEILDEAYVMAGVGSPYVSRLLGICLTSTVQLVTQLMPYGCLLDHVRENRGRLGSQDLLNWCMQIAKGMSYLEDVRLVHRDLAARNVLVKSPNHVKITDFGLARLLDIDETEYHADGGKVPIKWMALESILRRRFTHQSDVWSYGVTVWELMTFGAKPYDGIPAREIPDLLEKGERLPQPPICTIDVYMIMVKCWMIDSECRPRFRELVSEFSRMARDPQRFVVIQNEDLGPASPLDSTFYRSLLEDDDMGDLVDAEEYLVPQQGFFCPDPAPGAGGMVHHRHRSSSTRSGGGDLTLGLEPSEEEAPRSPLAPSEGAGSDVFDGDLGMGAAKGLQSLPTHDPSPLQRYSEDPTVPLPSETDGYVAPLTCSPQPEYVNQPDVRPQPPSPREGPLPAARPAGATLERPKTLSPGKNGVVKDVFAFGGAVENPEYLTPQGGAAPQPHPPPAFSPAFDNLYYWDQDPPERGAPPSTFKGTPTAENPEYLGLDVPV

SK-OV-3 = assay: Antiproliferative activity against human SK-OV-3 cells overexpressing EGFR/HER-2 assessed as inhibition of cell growth at 10 uM relative to control; type: functional
MDA-MB-468 = assay: Antiproliferative activity against human MDA-MB-468 cells overexpressing EGFR/HER-2 assessed as inhibition of cell growth at 10 uM relative to control; type: functional
NCI-H522 = assay: Antiproliferative activity against human NCI-H522 cells overexpressing EGFR/HER-2 assessed as inhibition of cell growth at 10 uM relative to control; type: functional
HUVEC = assay: Antiproliferative activity against HUVEC cells assessed as reduction in cell viability at 10 uM by alamar blue reagent based assay relative to control; type: functional; conditions: Homo sapiens
MCF7 = assay: Antiproliferative activity against human MCF7 cells assessed as reduction in cell viability incubated for 48 hrs by MTT assay; type: functional, cell-based; conditions: MCF7, 48 h
[4] = target: T1, Fas-activated serine/threonine kinase (Homo sapiens, UniProt Q14296); assay: Inhibition of […] human FASTK (355 to 444 residues) extracted from Escherichia coli BL21 (DE3) by Malachite Green dye based assay
T1 sequence (Q14296 whole entry): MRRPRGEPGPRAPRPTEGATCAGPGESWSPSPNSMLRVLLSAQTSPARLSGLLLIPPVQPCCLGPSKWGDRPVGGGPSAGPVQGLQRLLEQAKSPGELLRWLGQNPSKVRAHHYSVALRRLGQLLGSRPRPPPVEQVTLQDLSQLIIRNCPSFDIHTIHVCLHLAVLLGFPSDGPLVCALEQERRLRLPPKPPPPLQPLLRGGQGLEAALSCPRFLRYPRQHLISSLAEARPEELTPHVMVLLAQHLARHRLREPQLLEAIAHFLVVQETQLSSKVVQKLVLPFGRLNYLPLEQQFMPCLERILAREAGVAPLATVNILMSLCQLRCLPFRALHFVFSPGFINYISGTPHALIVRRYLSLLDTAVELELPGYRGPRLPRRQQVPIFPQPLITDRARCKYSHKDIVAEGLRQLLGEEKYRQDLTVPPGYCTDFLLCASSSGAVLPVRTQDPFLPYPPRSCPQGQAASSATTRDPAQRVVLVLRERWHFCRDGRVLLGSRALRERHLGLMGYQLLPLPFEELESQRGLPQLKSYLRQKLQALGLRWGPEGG

Ehrlich = assay: Antitumor activity against mouse Ehrlich carcinoma cell implanted in Swiss albino mouse model assessed as tumour growth inhibition at 10 mg/kg, po administered consecutively for 8 days relative to control; type: functional; conditions: 192 h, time 8 day, read-out: TGI

Chain of Vascular endothelial growth factor receptor 2 (Homo sapiens) (P35968 whole entry): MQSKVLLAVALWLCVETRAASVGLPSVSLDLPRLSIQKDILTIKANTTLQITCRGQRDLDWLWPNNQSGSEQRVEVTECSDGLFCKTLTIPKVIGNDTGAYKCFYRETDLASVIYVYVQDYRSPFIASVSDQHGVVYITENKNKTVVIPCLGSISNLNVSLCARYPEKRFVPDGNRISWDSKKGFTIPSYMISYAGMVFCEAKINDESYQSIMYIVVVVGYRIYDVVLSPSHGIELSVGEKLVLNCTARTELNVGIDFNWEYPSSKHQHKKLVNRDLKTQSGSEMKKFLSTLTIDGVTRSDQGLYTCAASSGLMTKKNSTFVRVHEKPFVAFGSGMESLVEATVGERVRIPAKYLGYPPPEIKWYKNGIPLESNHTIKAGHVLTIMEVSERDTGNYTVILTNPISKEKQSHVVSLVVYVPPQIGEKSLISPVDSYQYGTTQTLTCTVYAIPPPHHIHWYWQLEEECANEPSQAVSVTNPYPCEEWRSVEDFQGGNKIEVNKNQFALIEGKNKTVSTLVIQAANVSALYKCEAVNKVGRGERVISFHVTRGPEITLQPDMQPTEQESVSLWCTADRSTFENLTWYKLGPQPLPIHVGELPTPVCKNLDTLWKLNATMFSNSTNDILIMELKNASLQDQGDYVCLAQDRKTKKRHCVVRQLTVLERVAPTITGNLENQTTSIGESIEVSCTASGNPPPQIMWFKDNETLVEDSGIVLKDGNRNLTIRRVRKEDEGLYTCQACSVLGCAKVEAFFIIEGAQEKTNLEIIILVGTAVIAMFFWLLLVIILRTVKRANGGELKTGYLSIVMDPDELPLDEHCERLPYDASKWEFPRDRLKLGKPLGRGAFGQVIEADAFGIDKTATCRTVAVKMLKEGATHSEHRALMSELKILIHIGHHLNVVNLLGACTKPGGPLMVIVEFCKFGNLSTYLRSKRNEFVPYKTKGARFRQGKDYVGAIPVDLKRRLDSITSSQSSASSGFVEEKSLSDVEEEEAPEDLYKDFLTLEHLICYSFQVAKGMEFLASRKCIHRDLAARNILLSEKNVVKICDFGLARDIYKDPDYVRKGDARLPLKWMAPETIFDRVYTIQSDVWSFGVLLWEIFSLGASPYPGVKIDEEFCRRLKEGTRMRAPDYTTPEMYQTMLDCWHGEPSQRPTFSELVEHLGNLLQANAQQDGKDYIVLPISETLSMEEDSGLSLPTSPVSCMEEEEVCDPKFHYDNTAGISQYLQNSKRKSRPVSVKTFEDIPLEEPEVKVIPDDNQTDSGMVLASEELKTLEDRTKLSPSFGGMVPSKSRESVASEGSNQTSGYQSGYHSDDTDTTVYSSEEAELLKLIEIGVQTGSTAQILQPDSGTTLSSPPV

SMILES | inhibition [2] | inhibition [3] | inhibition at 10 µM (HUVEC) | further results
O=C(Nc1ccc(Cl)cc1)Nc1ccc(Oc2ncnc3sc4c(c23)CCCC4)cc1 | – | – | – | inhibition [1]: 46%
Fc1cccc(COc2ccc(Nc3ncnc4sc5c(c34)CCCC5)cc2Cl)c1 | 93% | 84% | – | inhibition at 10 µM (SK-OV-3): 80.6%; inhibition at 10 µM (MDA-MB-468): 68.2%; inhibition at 10 µM (NCI-H522): 56%
Fc1cccc(COc2ccc(Nc3ncnc4sc5c(c34)CCCC5)cc2)c1 | 93% | 84% | – | –
O=C(Nc1ccccc1)Nc1ccc(Oc2ncnc3sc4c(c23)CCCC4)cc1 | – | – | 64.3% | –
COc1ccc(/C=C/C(=O)c2ccc(Nc3ncnc4sc5c(c34)CCCC5)cc2)cc1OC | – | – | – | IC50 (MCF7): 8.2 µM; IC50 [4]: 0.15 µM
O=C(/C=C/c1ccccc1)c1ccc(Nc2ncnc3sc4c(c23)CCCC4)cc1 | – | – | – | IC50 (MCF7): 20.2 µM; IC50 [4]: 0.32 µM
c1ccc(COc2ccc(Nc3ncnc4sc5c(c34)CCCC5)cc2)cc1 | 93% | 84% | – | –
COc1cccc(NC(=O)Nc2ccc(Oc3ncnc4sc5c(c34)CCCC5)cc2)c1 | – | – | 79.2% | –
O=C(/C=C/c1ccc(Cl)cc1)c1ccc(Nc2ncnc3sc4c(c23)CCCC4)cc1 | – | – | – | IC50 (MCF7): 6.52 µM; IC50 [4]: 0.17 µM
Cc1cccc(NC(=O)Nc2ccc(Oc3ncnc4sc5c(c34)CCCC5)cc2)c1 | – | – | 82% | inhibition in vivo at 10 mg/kg (Ehrlich): 86.4%
Cc1ccc(NC(=O)Nc2ccc(Oc3ncnc4sc5c(c34)CCCC5)cc2)cc1Cl | – | – | 46% | inhibition in vivo at 10 mg/kg (Ehrlich): 82.7%
Fc1ccc(COc2ccc(Nc3ncnc4sc5c(c34)CCCC5)cc2Cl)cc1 | 93% | 84% | – | –
Clc1cc(Nc2ncnc3sc4c(c23)CCCC4)ccc1OCc1ccccc1 | 93% | 84% | – | –
